The values that follow come from ChEMBL document CHEMBL4184299, “Regioselective and efficient enzymatic synthesis of antimicrobial andrographolide derivatives” (Bioorg Med Chem Lett, 2018).

SMILES strings stand for the structures. ≈ marks a conversion by molar mass, not a printed value. Calls of active or inactive are those of the source. The calls are words filed in the database; no cut-off is given here. Some results are limits rather than exact numbers.

One data set concerns Micrococcus luteus. The data set can be described thus: Antimicrobial activity against Micrococcus luteus. Format: functional.
The subject of the next data set is Staphylococcus aureus. In words: Antimicrobial activity against Staphylococcus aureus. Format: functional.
A further data set deals with Pseudomonas fluorescens. In words: Antimicrobial activity against Pseudomonas fluorescens. Format: functional.
Data set [1] has as its system Escherichia coli. The data set can be described thus: Antimicrobial activity against Escherichia coli. Format: functional.
In another data set the test system is Aspergillus fumigatus. In words: Antimicrobial activity against Aspergillus fumigatus. The data set is classed as functional.
For another data set, the system named is Rhizopus arrhizus. The data set can be described thus: Antimicrobial activity against Rhizopus oryzae. The data set is classed as functional.
In the next data set the test system is Candida albicans. In words: Antimicrobial activity against Candida albicans. The data set is classed as functional.
Data set [2] is described as follows: Hemolytic activity in human RBC at 25 ug/ml relative to control. Format: ADME, cell-based, Erythrocyte. The following applies: red blood cells (erythrocytes), read-out: Activity.
The subject of data set [3] is Escherichia coli. The data set can be described thus: Disruption of membrane integrity in Escherichia coli assessed as protein leakage at MIC. The data set is classed as functional, organism-based.
Data set [4] relates to Escherichia coli. The data set can be described thus: Induction of membrane permeability in Escherichia coli at MIC by DAPI/FITC/propidium iodide staining-based fluorescent microscopic analysis. The data set is classed as functional, organism-based.
The subject of data set [5] is Escherichia coli. The data set can be described thus: Induction of membrane disruption in Escherichia coli assessed as blurred membranes at MIC after 60 mins by SEM analysis. Format: functional, organism-based.
The test system of data set [6] is Escherichia coli. In words: Induction of membrane disruption in Escherichia coli assessed as deflated membranes at MIC after 60 mins by SEM analysis. The data set is classed as functional, organism-based.
The test system of data set [7] is Escherichia coli. In words: Induction of membrane disruption in Escherichia coli assessed as translucent membranes at MIC after 60 mins by SEM analysis. The data set is classed as functional, organism-based.

Broadly, the MIC is the lowest concentration found to suppress growth. Read a low MIC as inhibition by little substance. On to `C=C1CC[C@@H]2[C@](C)(CO)[C@H](O)CC[C@@]2(C)[C@@H]1C/C=C1/C(=O)OC[C@H]1O` [ANDROGRAPHOLIDE], for which the MIC against Micrococcus luteus, against Staphylococcus aureus, against Pseudomonas fluorescens, against Escherichia coli [1], in the data set with Aspergillus fumigatus and against Rhizopus arrhizus was greater than 128 µg/mL each time. The same compound gave an MIC against Candida albicans greater than 128 µg/mL. In addition, the hemolysis at 25 ug/ml in [2] came out at 8.5%.

Turning to `CN[C@@H]1[C@@H](O)[C@@H](O[C@@H]2[C@@H](O)[C@H](O[C@H]3O[C@H](CN)CC[C@H]3N)[C@@H](N)C[C@H]2N)OC[C@]1(C)O.O=S(=O)(O)O`, the minimum inhibitory concentration (MIC) in the data set with Staphylococcus aureus and with Pseudomonas fluorescens was 0.5 µg/mL each time.

`C=C1CC[C@@H]2[C@](C)(CO)[C@H](O)CC[C@@]2(C)[C@@H]1C/C=C1/C(=O)OC[C@H]1OC(=O)CCCCCCCCC`: the MIC with Micrococcus luteus is 64 µg/mL (≈ 127 µM); in the data set on Staphylococcus aureus it was 16 µg/mL (≈ 31.7 µM); with Pseudomonas fluorescens, 64 µg/mL (≈ 127 µM); against Escherichia coli [1], 32 µg/mL (≈ 63.4 µM); in the data set on Aspergillus fumigatus, greater than 128 µg/mL; against Rhizopus arrhizus it was greater than 128 µg/mL. For the same compound, the minimum inhibitory concentration (MIC) against Candida albicans is greater than 128 µg/mL. Also, in [2], the hemolysis at 25 ug/ml came out at 35%. In addition, the outcome in the data set with Escherichia coli [3] was Active.

Consider `C=C1CC[C@@H]2[C@](C)(CO)[C@H](O)CC[C@@]2(C)[C@@H]1C/C=C1/C(=O)OC[C@H]1OC(=O)CC`, for which the minimum inhibitory concentration (MIC) in the data set on Micrococcus luteus is 16 µg/mL (≈ 39.4 µM); in the data set on Staphylococcus aureus it was 4 µg/mL (≈ 9.84 µM); with Pseudomonas fluorescens, 32 µg/mL (≈ 78.7 µM); against Escherichia coli [1], 8 µg/mL (≈ 19.7 µM); in the data set with Aspergillus fumigatus it was greater than 128 µg/mL; in the data set on Rhizopus arrhizus, greater than 128 µg/mL. The compound also returned an MIC in the data set on Candida albicans of 16 µg/mL (≈ 39.4 µM). The hemolysis at 25 ug/ml in data set [2] came to 6.4%. The result with Escherichia coli [4], in the data set on Escherichia coli [5], in the data set with Escherichia coli [6] and in the data set with Escherichia coli [7] was Active.

`C=C1CC[C@@H]2[C@](C)(CO)[C@H](O)CC[C@@]2(C)[C@@H]1C/C=C1/C(=O)OC[C@H]1OC(=O)CCCCCCCCCCC`: the MIC in the data set with Micrococcus luteus was 16 µg/mL (≈ 30 µM); with Staphylococcus aureus it was 16 µg/mL (≈ 30 µM); against Pseudomonas fluorescens, greater than 128 µg/mL; in the data set with Escherichia coli [1] it was 64 µg/mL (≈ 120 µM); against Aspergillus fumigatus, greater than 128 µg/mL; against Rhizopus arrhizus, greater than 128 µg/mL. In the data set with Candida albicans, this compound registered an MIC of 32 µg/mL (≈ 60.1 µM). Besides, in data set [2], the hemolysis at 25 ug/ml came to 46%. The result in the data set on Escherichia coli [3] was Active.

Regarding `C=C1CC[C@@H]2[C@](C)(CO)[C@H](O)CC[C@@]2(C)[C@@H]1C/C=C1/C(=O)OC[C@H]1OC(=O)CCC`, the MIC with Micrococcus luteus was 32 µg/mL (≈ 76.1 µM); with Staphylococcus aureus, 8 µg/mL (≈ 19 µM); with Pseudomonas fluorescens, 16 µg/mL (≈ 38 µM); in the data set on Escherichia coli [1], 4 µg/mL (≈ 9.51 µM); in the data set on Aspergillus fumigatus, greater than 128 µg/mL; against Rhizopus arrhizus, greater than 128 µg/mL. In the data set on Candida albicans, this compound registered a minimum inhibitory concentration (MIC) of 64 µg/mL (≈ 152 µM). For the same compound, the hemolysis at 25 ug/ml in data set [2] was 7.1%. Besides, the result in the data set with Escherichia coli [3], in the data set with Escherichia coli [4], in the data set on Escherichia coli [5], with Escherichia coli [6] and with Escherichia coli [7] was Active.

For `C=C1CC[C@@H]2[C@](C)(CO)[C@H](O)CC[C@@]2(C)[C@@H]1C/C=C1/C(=O)OC[C@H]1OC(C)=O`, the minimal inhibitory concentration (MIC) against Micrococcus luteus is 32 µg/mL (≈ 81.5 µM); with Staphylococcus aureus it was 16 µg/mL (≈ 40.8 µM); against Pseudomonas fluorescens, 4 µg/mL (≈ 10.2 µM); with Escherichia coli [1], 64 µg/mL (≈ 163 µM); with Aspergillus fumigatus, greater than 128 µg/mL; against Rhizopus arrhizus it was greater than 128 µg/mL. Further, in the data set with Candida albicans, it took 32 µg/mL (≈ 81.5 µM) to inhibit growth (MIC). Also, the hemolysis at 25 ug/ml in data set [2] came out at 4.8%. Further, the outcome with Escherichia coli [3] was Active.

Consider `C[C@@H]1[C@H](O)[C@@H](C)/C=C/C=C/C=C/C=C/C=C/C=C/C=C/[C@H](O[C@@H]2O[C@H](C)[C@@H](O)[C@H](N)[C@@H]2O)C[C@@H]2O[C@](O)(C[C@@H](O)C[C@@H](O)[C@H](O)CC[C@@H](O)C[C@@H](O)CC(=O)O[C@H]1C)C[C@H](O)[C@H]2C(=O)O` [AMPHOTERICIN B], for which the figures for the minimal inhibitory concentration (MIC) against Aspergillus fumigatus and against Rhizopus arrhizus were 0.5 µg/mL (≈ 0.541 µM) and 1 µg/mL (≈ 1.08 µM), respectively.
